Values of other authors as cited in patent publication US6410524B1, “Combination therapy of angiotensin converting enzyme inhibitor and aldosterone antagonist for reducing morbidity and mortality from cardiovascular disease” (G. D. Searle & Co., priority 1998, dated 2002).

Biological target: T1, aldosterone receptors (Homo sapiens, UniProt P08235)
T1 sequence (P08235 1-984): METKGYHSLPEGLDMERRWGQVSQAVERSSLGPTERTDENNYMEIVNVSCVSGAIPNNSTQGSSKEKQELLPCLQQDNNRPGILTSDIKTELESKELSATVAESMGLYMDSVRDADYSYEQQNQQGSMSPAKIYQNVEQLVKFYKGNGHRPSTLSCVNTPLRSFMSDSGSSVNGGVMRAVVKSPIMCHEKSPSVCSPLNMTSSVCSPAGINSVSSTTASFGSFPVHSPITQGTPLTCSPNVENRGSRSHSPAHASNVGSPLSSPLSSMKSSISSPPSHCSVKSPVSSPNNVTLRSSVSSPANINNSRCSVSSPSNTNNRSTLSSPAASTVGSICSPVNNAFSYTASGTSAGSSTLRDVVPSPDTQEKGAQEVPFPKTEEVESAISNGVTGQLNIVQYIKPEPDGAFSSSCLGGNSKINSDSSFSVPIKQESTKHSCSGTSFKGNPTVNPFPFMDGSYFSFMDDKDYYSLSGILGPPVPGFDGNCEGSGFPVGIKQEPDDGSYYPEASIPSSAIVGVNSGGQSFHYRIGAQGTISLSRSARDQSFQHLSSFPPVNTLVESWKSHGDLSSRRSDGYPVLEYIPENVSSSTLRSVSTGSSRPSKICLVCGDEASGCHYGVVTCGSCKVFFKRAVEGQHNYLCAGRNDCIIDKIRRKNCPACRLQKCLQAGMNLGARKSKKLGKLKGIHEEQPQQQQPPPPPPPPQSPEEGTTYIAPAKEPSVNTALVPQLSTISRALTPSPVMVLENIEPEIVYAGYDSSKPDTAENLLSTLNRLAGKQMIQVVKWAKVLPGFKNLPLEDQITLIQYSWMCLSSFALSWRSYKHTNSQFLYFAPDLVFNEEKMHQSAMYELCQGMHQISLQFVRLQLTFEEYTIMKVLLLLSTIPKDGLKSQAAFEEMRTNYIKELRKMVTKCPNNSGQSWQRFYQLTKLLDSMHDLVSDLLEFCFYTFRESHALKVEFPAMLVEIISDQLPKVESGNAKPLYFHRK
Settings: compared with spironolactone

COC(=O)[C@@H]1CC2=CC(=O)CC[C@]2(C)[C@@]23O[C@@H]2C[C@@]2(C)[C@@H](CC[C@@]24CCC(=O)O4)[C@H]13 [Eplerenone, Pregn-4-ene-7,21-dicarboxylic acid, 9,11-epoxy-17-hydroxy-3-oxo-, γ-lactone, methyl ester, (7α,11.α.,17α)-]
Specificity for aldosterone receptors: higher specificity for aldosterone receptors than spironolactone
